Measurements: patent publication US20220193070A1, “METHODS FOR TREATING ABSENCE SEIZURES” (XENON PHARMACEUTICALS INC., priority 2020, published 2022)
Marks after values point to notes of the source that are not given here.

Experiments:
[1] = Open-label clinical study: safety, tolerability and questionnaires
absence seizures [2] = assay: Open-label clinical study: number of absence seizures during EEG; format: in vivo, human; design: reduction of absence seizures on EEG: concentration or dose not given beside the values
Description: The secondary objectives are to evaluate EEG changes in patients with absence epilepsy; to evaluate changes in quality of life for patients; and to evaluate global impression change and clinical impression of change. The secondary outcome measures include median percent change in the number of absence seizures on EEG, and bursts of spike/wave lasting 2 or more seconds in patients treated with flunarizine compared with the baseline period; Clinical and Patient Global Impression of Change scores during the flunarizine treatment period; median percent change in weekly absence seizure frequency from baseline compared to end of study period; and median percent change in weekly absence seizure frequency from flunarizine treatment period.

absence seizures [3] = assay: Open-label clinical study: absence seizure frequency from patient seizure diaries; format: in vivo, human
Description: Seizure frequency is documented via seizure diaries and side effects and safety are closely monitored. This study informs the feasibility and utility of conducting a larger clinical trial.
Objectives: The primary objective is to assess the efficacy, safety and tolerability of flunarizine compared to a baseline period on absence seizures in patients with treatment refractory generalized epilepsy taking a minimum of one anti-seizure medication (ASM).
This is an open-label, single-centre study to evaluate the clinical efficacy, safety and tolerability of flunarizine administered as adjunctive treatment in participants diagnosed with treatment resistant absence epilepsy. The study includes 20 participants.
Inclusion Criteria: Participants eligible for this study meet all of the following criteria: • 1. Participant is 4 to 18 years of age • 2. Participant has treatment resistant absence seizures. Treatment resistant absence seizures are defined as failure to respond to […] appropriate anti-seizure medications (ASMs). […] Participant must currently be taking a minimum of one ASM • 4. Normal development (may have specific learning disabilities and/or ADHD/ADD) • 5. EEG confirmation of absence seizures and EEG within 2 months of screening visit • 6. Absence seizures reported at least 10 times per week • 7. Participants must have no changes in baseline ASMs for 1 month prior to screening period • 8. Participant or caregiver can maintain a seizure diary • 9. Participant is able to swallow capsules • 10. Written informed consent must be provided. Legal guardians of the participants must be able to understand and provide written consent on behalf of the participant, since study participants may be too young to provide informed consent. For participants 7-18 years of age, assent is required along with written informed consent of the caregiver. • 11. The participant is willing and able to attend all study visits • 12. Participant has the ability to speak and read in English • 13. Females of child bearing potential who are sexually active must be willing to use contraceptive methods for the duration of the study and 6 months post last dose of study drug. • 14. Males who are sexually active with females of child bearing potential must be willing to use contraception for the duration of the study and 3 months post last dose of study drug.
The initial dose of flunarizine at Visit 2 is 5 mg/day taken at night. The dose is taken orally as one 5 mg capsule. In order to optimize response to treatment, dose escalation, at the discretion of the investigator, is performed at Visit 3. If the 5 mg/day dose is tolerated by any given participant, the dose is escalated to 10 mg/day taken as two 5 mg capsules. […] The investigator uses discretion to maintain or adjust the dose level based on the study participant's tolerability and clinical response, alongside other medical considerations. If deemed necessary by the investigator, the 10 mg dose is be split into morning and evening doses to reduce minor side effects.
At the screening visit, the seizure history is assessed using detailed parental interviews and chart review. The investigator takes the participant's medical history (including date of seizure onset date of epilepsy diagnosis). The participant's vital signs (temperature, blood pressure and heart rate), height and weight are recorded.

Fc1ccc(C(c2ccc(F)cc2)N2CCN(C/C=C/c3ccccc3)CC2)cc1 [Flunarizine, 1-[bis(4-fluorophenyl)methyl]-4-cinnamyl-piperazine]
Depressive symptoms and somnolence ([1]; human, in vivo): not observed in any patient | tolerability ([1]; patients 4 to 18 years, 5 or 10 mg/day oral): well tolerated | side effect ([1]; resulting in medication discontinuation): weight gain as the only side effect in one patient | absence seizures on EEG (absence seizures [2]; 2 of the three CAE subjects): resolution of absence seizures | % Reduction in Seizures (EEG) (absence seizures [2]; Patient 1 (Jeavons)): 11% | Number of Absence Seizures during EEG, Visit 5 (absence seizures [2]; Patient 1 (Jeavons), baseline 9): 8 | % Reduction in Seizures (EEG) (absence seizures [2]; Patient 3 (CAE)): 94% | Number of Absence Seizures during EEG, Visit 5 (absence seizures [2]; Patient 3 (CAE), baseline 16): 1 | % Reduction in Seizures (EEG) (absence seizures [2]; Patient 4 (CAE)): 100% | Number of Absence Seizures during EEG, Visit 5 (absence seizures [2]; Patient 4 (CAE), baseline 7): 0 | % Reduction in Seizures (EEG) (absence seizures [2]; Patient 5 (CAE)): 100% | Number of Absence Seizures during EEG, Visit 5 (absence seizures [2]; Patient 5 (CAE), baseline 5): 0 | % Reduction in Seizures (EEG) (absence seizures [2]; Patient 6 (JAE), 10 mg): 50 to 100%*** | Number of Absence Seizures during EEG, Visit 5 (absence seizures [2]; Patient 6 (JAE), 10 mg, baseline 6): 3 | reduction of absence seizures on EEG (absence seizures [2]; one of the three CAE subjects): 94% | reduction in seizures, EEG data (absence seizures [2]; single JAE subject): 50 to 100% | reduction in diary recorded seizures (absence seizures [3]; 2 of the 3 CAE patients): > 80% | Seizure Frequency at visit 5 (absence seizures [3]; Patient 1, Jeavons, 10 mg daily, current ASMs VPA, CLON, baseline 409 per month): 608 | % Reduction in Seizures (absence seizures [3]; Patient 1, Jeavons, 10 mg daily, printed as Increase): ~50% | % Reduction in Seizures (absence seizures [3]; Patient 3, CAE, 10 mg daily): 85% | Seizure Frequency at visit 5 (absence seizures [3]; Patient 3, CAE, 10 mg daily, current ASMs LTG, ESM, ketogenic diet, baseline 41 per month): 6 | % Reduction in Seizures (absence seizures [3]; Patient 4, CAE, 10 mg daily): 57% | Seizure Frequency at visit 5 (absence seizures [3]; Patient 4, CAE, 10 mg daily, current ASM LTG, baseline 79 per month): 34 | % Reduction in Seizures (absence seizures [3]; Patient 5, CAE, 5 mg daily): 83% | Seizure Frequency at visit 5 (absence seizures [3]; Patient 5, CAE, 5 mg daily, current ASM VPA, baseline 54 per month): 9 | reduction in diary recorded seizures (absence seizures [3]; all 3 CAE patients): > 50% | change in seizures (absence seizures [3]; one of the two patients with Jeavons Syndrome): increased seizures | study termination (absence seizures [3]; the other patient with Jeavons Syndrome): terminated within one week due to increase in seizures | response to flunarizine (absence seizures [3]; the two patients with Jeavons Syndrome): did not respond
